Test system: 439559-082-T-J2-PDC spheroid viability
Assay: Anticancer human tumor 439559-082-T-J2-PDC patient-derived colon adenocarcinoma cell line growth inhibition [POLQ]
Settings: spheroids with HUVEC and MSC; for IC50: curve of first compound; for viability, T/C: stronger effect = lower value
Description: Multicellular complex tumor spheroid response to Polymerase (POL) inhibitors (novobiocin, ART-558, RP6685) in combination with a variety of drugs and investigational agents in selected tumor cell lines
The POL inhibitors (novobiocin, ART-558, and RP6685) were evaluated both individually and in combination with standard of care and investigational anticancer small molecules within a complex spheroid model of solid tumors. . Complex spheroids include a stromal component modeled by human endothelial cells (HUVEC) and fibroblasts modeled by human mesenchymal stem cells (MSCs). The concentration ranges selected for each drug and investigational agent were based upon clinically achievable concentrations if the clinical Cmax of the agent was known.
Compounds. The drugs and investigational agents: novobiocin (NSC847541), ART-558 (NSC835418), RP-6685 (NSC848927), peposertib (NSC802822), ceralasertib (NSC780249), elimusertib (NSC800525), camonsertib (NSC841442), AZD-1390 (NSC803789), olaparib (NSC753686), talazoparib (NSC767125), rucaparib (NSC756644), sotorasib (NSC818433), MRTX-1133 (NSC836407), SN-38 (NSC673596), topotecan (NSC609699), epotoside (NSC141540), doxorubicin (NSC123127), gemcitabine (NSC613327), 5-fluorouracil (NSC19893), paclitaxel (NSC125973), vemurafenib (NSC761431), MSA-2 (NSC828583), SN-011 (NSC837082), adavosertib (NSC754352), prexasertib (NSC758257), carboplatin (NSC241240) and oxaliplatin (NSC266046), were obtained from the National Cancer Institute (NCI) Developmental Therapeutics Program Chemical Repository (21). The FDA-approved anticancer drug set is available from the Developmental Therapeutics Program at https://dtp.cancer.gov/organization/dscb/obtaining/. […] The stock solutions were prepared in dimethyl sulfoxide (DMSO, Sigma-Aldrich, St. Louis, MO, cat. D2650), except for the platinum compounds which were prepared in saline (Quality Biological, Gaithersburg, MD, cat. 114-055-101), at 800-fold the tested concentration and stored at -70 degrees C prior to their use. All drugs and investigational agents were tested over a range starting from a high concentration at or near the clinical Cmax and decreasing in half-log increments. If the clinical Cmax for an agent had not been determined, the highest concentration tested was 10 microM, except for SN-38, which was tested at a high concentration of 1 microM.
Cell Culture. All cells were maintained in an incubator at 37 degrees C and 5% CO2 with 95% humidity. The PDC lines were cultured according to standard operating procedures established by the NCI PDMR (https://pdmr.cancer.gov). Table 3 of the manuscript, lists the cell lines along with the number of the three cell types plated to form the mct-spheroids and media for tumor cell growth. After thawing, all PDC lines, except 997537-175-T-J1-PDC and 415267-285-R-J2-PDC, were cultured in Matrigel-coated flasks prepared with a working solution of 1X Ham's F-12 nutrient mix, without supplementation (Thermo Fisher Scientific, cat. 11765054), 100 U/mL penicillin-streptomycin (Thermo Fisher Scientific, cat. 15140122), and 2.5% Matrigel (Corning Inc., Corning, NY, cat. 354248) for the first three passages. The two PDC lines 997537-175-T-J1-PDC and 415267-285-R-J2-PDC were cultured on uncoated flasks. The 857933-349-R-J2-PDC line was cultured in 6C/Colon 1B media containing advanced DMEM/F-12 (Thermo Fisher Scientific, cat. 12634028), 10 mM HEPES (Thermo Fisher Scientific, cat. 15630080), 1X GlutaMAX supplement (Thermo Fisher Scientific, cat. 35050061), 0.1 mg/mL primocin (InvivoGen, San Diego, CA, cat. ant-pm-2), 10% defined fetal bovine serum, heat inactivated (HyClone Laboratories Inc., Logan, UT, cat. SH30070.03HI), 50% L-WRN conditioned media (ATCC, cat. CRL-3276), 1.25 mM N-Acetyl-L-cysteine (Sigma-Aldrich, cat. A9165), 10 mM nicotinamide (Sigma-Aldrich, cat. N0636), 1X B-27 supplement (Thermo Fisher Scientific, cat. 17504044), 1X N-2 supplement (Thermo Fisher Scientific, cat. […]
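Also: spheroids exposed to compounds for seven days before readout.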
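For viability, T/C in this document: 100% = DMSO vehicle control viability.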

SMILES: COc1cc2cc(C(=O)CCC(=O)O)sc2cc1OC + COC1C(OC(N)=O)C(O)C(Oc2ccc3c(O)c(NC(=O)c4ccc(O)c(CC=C(C)C)c4)c(=O)oc3c2C)OC1(C)C
- IC50 (second compound 0.0316 µM): > 10 µM
- IC50 (second compound 0.1 µM): > 10 µM
- IC50 (second compound 0.316 µM): > 10 µM
- IC50 (second compound 1 µM): > 10 µM
- IC50 (second compound 3.16 µM): > 10 µM
- IC50 (second compound 10 µM): > 10 µM
- viability, T/C (second compound 0.0316 µM, first compound 0.0316 µM): 94%
- viability, T/C (second compound 0.0316 µM, first compound 0.1 µM): 96.2%
- viability, T/C (second compound 0.0316 µM, first compound 0.316 µM): 90.1%
- viability, T/C (second compound 0.0316 µM, first compound 1 µM): 92.3%
- viability, T/C (second compound 0.0316 µM, first compound 3.16 µM): 100%
- viability, T/C (second compound 0.0316 µM, first compound 10 µM): 95.2%
- viability, T/C (second compound 0.1 µM, first compound 0.0316 µM): 94.1%
- viability, T/C (second compound 0.1 µM, first compound 0.1 µM): 103%
- viability, T/C (second compound 0.1 µM, first compound 0.316 µM): 103%
- viability, T/C (second compound 0.1 µM, first compound 1 µM): 95.7%
- viability, T/C (second compound 0.1 µM, first compound 3.16 µM): 111%
- viability, T/C (second compound 0.1 µM, first compound 10 µM): 98.1%
- viability, T/C (second compound 0.316 µM, first compound 0.0316 µM): 98.6%
- viability, T/C (second compound 0.316 µM, first compound 0.1 µM): 99.1%
- viability, T/C (second compound 0.316 µM, first compound 0.316 µM): 96.2%
- viability, T/C (second compound 0.316 µM, first compound 1 µM): 97.8%
- viability, T/C (second compound 0.316 µM, first compound 3.16 µM): 97.1%
- viability, T/C (second compound 0.316 µM, first compound 10 µM): 93.2%
- viability, T/C (second compound 1 µM, first compound 0.0316 µM): 98.1%
- viability, T/C (second compound 1 µM, first compound 0.1 µM): 99.3%
- viability, T/C (second compound 1 µM, first compound 0.316 µM): 98.8%
- viability, T/C (second compound 1 µM, first compound 1 µM): 94.7%
- viability, T/C (second compound 1 µM, first compound 3.16 µM): 96.1%
- viability, T/C (second compound 1 µM, first compound 10 µM): 91.3%
- viability, T/C (second compound 3.16 µM, first compound 0.0316 µM): 99.1%
- viability, T/C (second compound 3.16 µM, first compound 0.1 µM): 99.5%
- viability, T/C (second compound 3.16 µM, first compound 0.316 µM): 84.7%
- viability, T/C (second compound 3.16 µM, first compound 1 µM): 95.6%
- viability, T/C (second compound 3.16 µM, first compound 3.16 µM): 98%
- viability, T/C (second compound 3.16 µM, first compound 10 µM): 89.5%
- viability, T/C (second compound 10 µM, first compound 0.0316 µM): 99%
- viability, T/C (second compound 10 µM, first compound 0.1 µM): 96.9%
- viability, T/C (second compound 10 µM, first compound 0.316 µM): 97.9%
- viability, T/C (second compound 10 µM, first compound 1 µM): 95.9%
- viability, T/C (second compound 10 µM, first compound 3.16 µM): 111%
- viability, T/C (second compound 10 µM, first compound 10 µM): 89.6%

From PubChem BioAssay AID1963841 (Molecular Pharmacology Branch, DTP, NCI, 2024)
